The source of these data is BindingDB's records for patent US20240132473 (Shanghai Xunhe Pharmaceutical Technology Co., 2024).

The target in the assay is T1, Interleukin-1 receptor-associated kinase 4 (Homo sapiens, UniProt Q9NWZ3).
T1 sequence (Q9NWZ3 whole entry): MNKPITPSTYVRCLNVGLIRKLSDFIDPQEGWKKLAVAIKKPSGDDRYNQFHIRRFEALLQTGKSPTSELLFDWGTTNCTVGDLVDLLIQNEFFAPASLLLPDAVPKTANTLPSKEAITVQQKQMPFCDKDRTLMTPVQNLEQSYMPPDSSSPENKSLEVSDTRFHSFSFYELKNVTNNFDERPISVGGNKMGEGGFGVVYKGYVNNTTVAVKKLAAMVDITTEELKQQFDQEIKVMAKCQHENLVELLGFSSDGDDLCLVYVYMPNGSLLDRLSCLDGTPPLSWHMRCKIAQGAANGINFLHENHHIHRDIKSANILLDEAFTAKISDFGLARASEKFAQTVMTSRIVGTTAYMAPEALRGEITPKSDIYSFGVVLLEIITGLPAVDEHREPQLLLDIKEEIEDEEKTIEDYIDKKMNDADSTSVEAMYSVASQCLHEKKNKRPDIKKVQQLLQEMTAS
Put plainly: IRAK4 Kinase Inhibitory Activity Assay. As for the experimental part: The inhibitory activity (IC50) of the compound on IRAK4 kinase under Km ATP was detected by mobility shift assay (MSA). Ten drug concentration gradients were set (initial concentration 1 μM, 3-fold dilution, 2 duplicate wells per concentration). […] After incubation at 28° C. for a period of time, 10 μL of termination buffer was added to terminate the reaction. The conversion rate data was read with Caliper, and then the conversion rate was converted into inhibition rate data. According to the inhibition rate data of each concentration, the IC50 of half inhibitory concentration was calculated by Logit method (Table 3).

As usually defined, the IC50 is the midpoint of a concentration-inhibition curve. The low end stands for higher potency, the high end for lower potency. Turning to `CC(C)(O)c1cc2nn(CCS(C)(=N)=O)cc2cc1NC(=O)c1cccc(C(F)(F)F)n1` (configuration not stated) [US20240132473, Compound MY-004-102], the IC50 came out at 0.152 µM. In turn, `COc1cc2nn(CCS(C)(=N)=O)cc2cc1NC(=O)c1cccc(C(F)(F)F)n1` (configuration not stated) [US20240132473, Compound MY-004-103] showed a 50% inhibitory concentration (IC50) of 0.137 µM.
